According to article PMC12227259, “PubChem BioAssays 1063: A Poorly Exploited Source of New Antileishmanial Compounds” (Journal of Parasitology Research, 2025):
Like-named read-outs stand apart in the source and are kept apart here.

Tests used:
[1] = parameters: method as in PMID 6576723; details: subcutaneous route; cited from earlier work
L. major promastigotes = test: Growth inhibition assay of promastigotes (pNPP); assay type: cell-based, L. major MHOM/IL/81/Friedlin; details: Leishmania major, read-out: Promastigotes (IC50 ± SD) L. major
From the text: (§1) Leishmania (Leishmania) amazonensis MHOM/BR/77/LTB0016 reference strain was kindly donated by the Department of Immunology of Fundação Oswaldo Cruz (Fiocruz), Brazil. Leishmania (Leishmania) mexicana MNYC/BZ/62/M379 and L. major MHOM/IL/81/Friedlin reference strains were kindly donated by Paul A. Bates, Division of Biomedical and Life Sciences, Faculty of Health and Medicine, Lancaster University, United Kingdom. Leishmania (Leishmania) infantum MHOM/FR/78/LEM75 was kindly donated by the Department of Parasitology, Faculty of Pharmacy, Universidad Complutense de Madrid, Spain. The promastigotes were cultivated at 26°C in Medium 199 (Gibco, Grand Island, NY, United States) supplemented with 10% heat-inactivated (56°C, 30 min) fetal bovine serum (Gibco, Grand Island, NY, United States) and antibiotics (200 IU penicillin and 200 μg/mL streptomycin). Exponential multiplication of the promastigotes of the four species was attained by passages every 3–4 days. L. mexicana axenic amastigotes were cultured in Schneider's Insect Medium (Sigma-Aldrich, St. Louis, MO, United States) at pH 5.4, supplemented with 20% heat-inactivated fetal bovine serum and antibiotics (as above).
(§2) The growth inhibition assay of promastigotes was conducted according to Bodley et al.'s procedure, with minor modifications. Briefly, 96-well culture plates were seeded with 100 μL culture medium 199 containing 5 × 10^5 log-phase promastigotes and 100 μL of twofold serial dilutions of the test compounds in culture medium. The plates were sealed with parafilm and incubated for 48 h at 26°C. Negative control wells contained promastigotes and DMSO at 0.5%, and positive wells contained promastigotes and 2.7 μM amphotericin B deoxycholate (Gibco, Grand Island, NY, United States). A series of amphotericin B concentrations was also tested in parallel to estimate its IC50 against promastigotes of the three Leishmania strains. After the incubation period, 30 μL of 3 mg/mL p-nitro-phenyl-phosphate (pNPP) (Sigma-Aldrich) in sodium acetate (pH 5.5, Sigma-Aldrich) and 1% Triton X-100 (Sigma-Aldrich) were added to each well. Plates were incubated for other 3 h at 37°C, and 50 μL 0.25 M NaOH (Sigma-Aldrich) was added to change all the produced p-nitro-phenol to its yellow-colored form. Absorbance was then read in a Biotek Epoch microplate reader (Agilent, Santa Clara, CA, United States) at 405 nm. Half-maximal inhibitory concentrations (IC50) were estimated by nonlinear fitting of absorbance versus compound concentration to the sigmoid Emax equation [18]. Each drug concentration was tested in quadruplicate, and the assay was repeated three times.

[2] = Cytotoxicity, alamar blue; assay type: cell-based, BALB/c mice; details: BALB/c, read-out: Cytotoxicity (CC50 ± SD)
Protocol: The cytotoxicity of the test compounds was assessed in primary cultures of mouse peritoneal macrophages as reported elsewhere, with minor modifications. Briefly, BALB/c mice were sacrificed by CO2 inhalation, and their peritoneal macrophages were collected by washing the abdominal cavity with cold RPMI 1640 (Gibco, Paisley, Scotland, United Kingdom) culture medium supplemented with antibiotics (sodium penicillin 200 IU and streptomycin 200 μg/mL) and 10% fetal bovine serum. The macrophages were distributed in 96-well culture plates at 10^5 cells/well. After 4 h incubation at 37°C and 5% CO2, the culture medium was replaced by fresh medium containing the test compounds, and the plates were incubated for another 48 h. Afterwards, 20 μL alamar blue (Thermo Fisher Scientific, Oregon, United States) was added per well. Incubation was continued for another 6–8 h at 37°C and 5% CO2 to measure the fluorescence of the reduced dye in a plate reader (excitation: 485 nm, emission: 590, scaling factor: 10/10, Fluoroskan Ascent FL 2.5 plate reader—Thermo Labsystems, Waltham, MA, United States). Fifty percent cytotoxic concentrations (CC50) were estimated by nonlinear fitting to the Emax sigmoid model. Each concentration was tested in triplicate, and each compound was tested in three independent studies.

[3] = system: L. mexicana intracellular amastigotes; test: Intracellular amastigote transformation and proliferation assay; assay type: cell-based, Leishmania (Leishmania) mexicana; details: for IC50: Leishmania mexicana, Peritoneal macrophage, read-out: L. mexicana amastigotes (IC50 ± SD)
From the text: as §1
The activity of the test compounds against L. mexicana intracellular amastigotes was carried out by the transformation and proliferation assay as reported elsewhere. Briefly, mouse peritoneal macrophages were obtained by peritoneal lavage of BALB/c mice and cultivated in RPMI 1640 medium supplemented with fetal bovine serum and antibiotics as described above. The cells were seeded in 96-well culture plates at 10^5 cells/well (100 μL) and incubated at 37°C and 5% CO2 for 2 h. Then, macrophages were infected with L. mexicana axenic amastigotes at a rate of three parasites per host cell. After overnight incubation at 37°C and 5% CO2, noninternalized amastigotes and nonadhered macrophages were removed by the elimination of the culture medium and washing with phosphate buffer solution (PBS). Fresh RPMI 1640 medium containing serial dilutions of the test compounds was then added. Amphotericin B was tested in parallel at concentrations from 1.35 to 0.021 μM. Four replicates of each drug concentration were tested in every assay. Plates were incubated for 48 h at 37°C and 5% CO2.

[4] = system: L. amazonensis promastigotes; test: Growth inhibition assay of promastigotes (pNPP); assay type: cell-based, Leishmania (Leishmania) amazonensis MHOM/BR/77/LTB0016; details: Leishmania amazonensis, read-out: Promastigotes (IC50 ± SD) L. amazonensis
From the text: as §1, §2

[5] = system: L. mexicana promastigotes; test: Growth inhibition assay of promastigotes (pNPP); assay type: cell-based, Leishmania (Leishmania) mexicana MNYC/BZ/62/M379; details: Leishmania mexicana, read-out: Promastigotes (IC50 ± SD) L. mexicana
From the text: as §1, §2

[6] = system: L. infantum promastigotes; test: Growth inhibition assay of promastigotes (pNPP); assay type: cell-based, Leishmania (Leishmania) infantum MHOM/FR/78/LEM75; details: Leishmania infantum, read-out: Promastigotes (IC50 ± SD) L. infantum
From the text: as §1, §2

L. mexicana = test: Mouse model of cutaneous leishmaniasis, intralesional treatment; assay type: in vivo, BALB/c mice; details: for lesion size versus amphotericin B–treated mice: at 21 days
Protocol: Female, 18–20 g, 8–10 weeks old BALB/c mice were supplied by the laboratory animal breeding facility of the Faculty of Medicine, National Autonomous University of México. They were maintained under controlled environmental conditions (room temperature 22°C–25°C, relative humidity 60%–65%, light cycle 12 h light–12 h dark) and were handled by qualified personnel. At the end of studies, mice were sacrificed by CO2 inhalation. The experimental protocol was approved by the Ethics in Research Committee and the Internal Committee on the Care and Use of Lab Animals (Code CICUAL 004-CIC-2019). All the experiments were conducted in accordance with the Mexican Regulation and the Institute of Laboratory Animal Research Guide for the care and use of laboratory animals.
Mice were infected by intradermal injection in the footpads with 10^7 stationary-phase L. mexicana promastigotes. Two weeks later, mice were randomly allocated in seven groups of 6–7 mice each. Four groups were treated intralesionally every 3 days (five doses) with 20 μL of any of the test compounds at 10 mg/mL in DMSO. […] The dorso-plantar thickness of the rear limbs was weekly measured from the beginning of treatment (14 days postinfection) to 2 weeks after the end of treatment. Feet were measured with a Vernier caliper, and lesion sizes were calculated by subtracting the value of the noninfected limb (left) to that of the infected one (right).
Two weeks after the end of treatment, mice were weighed, sacrificed by CO2 inhalation, and necropsied. The weights of the heart, liver, spleen, and left and right kidneys were determined. Both rear limbs were excised at the level of the tibiotarsal joint and weighed to calculate, by difference, the weight of the lesions. The number of parasites in the lesions was estimated by using the limiting dilution assay technique.

[7] = system: L. donovani axenic amastigotes; parameters: method as in PMID 27501246; details: cited from earlier work
Trypanosoma brucei = system: Trypanosoma brucei; parameters: method as in PMID 27501246; details: in vitro and in vivo; cited from earlier work
Trypanosoma cruzi = system: Trypanosoma cruzi; parameters: method as in PMID 27501246; details: in vitro and in vivo; cited from earlier work
Leishmania = details: cited from earlier work
[8] = primary mouse peritoneal macrophages
[9] = intracellular amastigotes in mouse peritoneal macrophages, 48 h, then 72 h transformation at 26°C
[10] = second mention, p = 0.0057 (Compound 5), p = 0.0030 (Compound 6)

Row | SMILES | IC50 (L. major promastigotes; 48 h at 26°C, pNPP readout) | CC50 at 48 h [2, 8] | IC50 [3, 9] | IC50 ([4]; 48 h at 26°C, pNPP readout) | IC50 ([5]; 48 h at 26°C, pNPP readout) | IC50 ([6]; 48 h at 26°C, pNPP readout) | also measured
1 | C[S+](C)[O-] [DMSO, dimethyl sulfoxide] | – | – | – | – | – | – | 50% lethal single dose toxicity [1]: 13900 to 20500 mg/kg
2 | C[C@@H]1[C@H](O)[C@@H](C)/C=C/C=C/C=C/C=C/C=C/C=C/C=C/[C@H](O[C@@H]2O[C@H](C)[C@@H](O)[C@H](N)[C@@H]2O)C[C@@H]2O[C@](O)(C[C@@H](O)C[C@@H](O)[C@H](O)CC[C@@H](O)C[C@@H](O)CC(=O)O[C@H]1C)C[C@H](O)[C@H]2C(=O)O [AmB, amphotericin B deoxycholate, reference compound] | 0.031 ± 0.008 µM | 21 ± 2.1 µM | 0.48 ± 0.02 µM | 0.031 ± 0.007 µM | 0.042 ± 0.019 µM | 0.031 ± 0.002 µM | Selectivity index [3]: 44
3 | CN1CCN(Cc2ccccc2Sc2ccccc2)CC1 [Compound 6] | 4.6 ± 2.3 µM | – | 5.9 ± 2.8 µM | 3 ± 0.42 µM | 2.3 ± 0.54 µM | 2.7 ± 1 µM | CC50 ([2]; mouse peritoneal macrophages, 48 h): 60.9 ± 10.7 µM; Selectivity index ([3]; CC50/IC50 (in amastigotes)): 10; lesion size versus amphotericin B–treated mice (L. mexicana; [10]): statistically smaller
4 | CC(C)OCCCn1c(=N)c(C(N)=S)cc2c(=O)n3ccccc3nc21 [Compound 5] | 9.9 ± 1.9 µM | 172 ± 7.9 µM | 1.1 ± 0.3 µM | 28.6 ± 14.3 µM | 27.2 ± 6.2 µM | 13.8 ± 4.1 µM | average lesion weight versus amphotericin B treated mice (L. mexicana; 2 weeks after the end of treatment, p = 0.023): statistically lower; lesion size versus amphotericin B–treated mice (L. mexicana; first mention, p = 0.0491): statistically smaller; lesion size versus amphotericin B–treated mice (L. mexicana; [10]): statistically smaller
5 | Nc1cnn(Cc2ccccc2F)c1 [Compound 4] | 11.3 ± 2.2 µM | 172 ± 6.9 µM | 8.9 ± 1.5 µM | 23.7 ± 9.9 µM | 11.1 ± 8.2 µM | 23.1 ± 7.6 µM | Selectivity index ([3]; CC50/IC50 (in amastigotes)): 19; number of parasites in lesions versus controls, distribution-free multiple comparison test (L. mexicana; limiting dilution, 2 weeks after the end of treatment, p = 0.0170): statistically significant differences
6 | O=C(Cn1cc([N+](=O)[O-])nc1[N+](=O)[O-])N1CCN(c2ccccc2)CC1 [Compound 7] | – | – | – | – | – | – | IC50 (L. major promastigotes; 48 h): 2.9 ± 0.56 µM; CC50 at 48 h ([2]; mouse peritoneal macrophages): 25.2 ± 1.9 µM; IC50 ([3]; in Mus musculus): 0.23 ± 0.04 µM; IC50 ([4]; 48 h): 1.2 ± 0.44 µM; IC50 ([5]; 48 h): 0.76 ± 0.16 µM; IC50 ([6]; 48 h): 5.9 ± 1 µM
7 | CCN1CCN(C(=S)c2ccc(OC)cc2)CC1 [Compound 2] | > 50 µM | 127 ± 2.1 µM | > 50 µM | > 50 µM | > 50 µM | > 50 µM | –
8 | COc1ccc2c(c1)sc(=N)n2C [Compound 3] | > 50 µM | > 257 µM | > 50 µM | 30.6 ± 11 µM | > 50 µM | > 50 µM | –
9 | OC(COc1cccc2ccccc12)CN1CCCC1 (centres unmarked) [Compound 1] | 42.5 ± 7.2 µM | 125 ± 11 µM | 26.3 ± 8.2 µM | > 50 µM | > 50 µM | 23.4 ± 9.2 µM | Selectivity index ([3]; CC50/IC50 (in amastigotes)): 5
10 | Cc1nc(C)c(C(=O)Nc2ccc(F)c(-c3nc4ncc(-c5ccccn5)cn4n3)c2)o1 [GNF 6702] | – | – | – | – | – | – | increase in potency on optimization of hit GNF5343 [7]: 400 fold; activity against Trypanosoma brucei (Trypanosoma brucei): active; activity against Trypanosoma cruzi (Trypanosoma cruzi): active
11 | CCN(CC)C(=S)SSC(=S)N(CC)CC [disulfiram] | – | – | – | – | – | – | in vivo activity in an experimental model of cutaneous leishmaniasis (Leishmania): in vivo activity
